Laboratory results: PubChem BioAssay AID1259407 (Chemical Carcinogenesis Research Information System (CCRIS), 2018)
The source made the active and inactive calls. How the calls were made is not given here.

Test system: CCRIS mutagenicity, Ames/micronucleus/aberration tests
Experiment: CCRIS mutagenicity studies
[1] = Test System: AMES SALMONELLA TYPHIMURIUM, Strain/Indicator: TA97, Metabolic Activation: NONE, Method: PREINCUBATION
[2] = Test System: AMES SALMONELLA TYPHIMURIUM, Strain/Indicator: TA98, Metabolic Activation: NONE, Method: PREINCUBATION
[3] = Test System: AMES SALMONELLA TYPHIMURIUM, Strain/Indicator: TA100, Metabolic Activation: NONE, Method: PREINCUBATION
[4] = Test System: AMES SALMONELLA TYPHIMURIUM, Strain/Indicator: TA1535, Metabolic Activation: NONE, Method: PREINCUBATION
[5] = Test System: AMES SALMONELLA TYPHIMURIUM, Strain/Indicator: TA1537, Metabolic Activation: NONE, Method: PREINCUBATION
[6] = Test System: AMES SALMONELLA TYPHIMURIUM, Strain/Indicator: TA98, Metabolic Activation: NONE, Method: STANDARD PLATE
[7] = Test System: AMES SALMONELLA TYPHIMURIUM, Strain/Indicator: TA100, Metabolic Activation: NONE, Method: STANDARD PLATE
[8] = Test System: AMES SALMONELLA TYPHIMURIUM, Strain/Indicator: TA100, Metabolic Activation: RAT, LIVER, S-9, AROCLOR 1254, Method: STANDARD PLATE

Measured: mutagenic call

C[C@@H]1[C@H](O)[C@@H](C)/C=C/C=C/C=C/C=C/C=C/C=C/C=C/[C@H](O[C@@H]2O[C@H](C)[C@@H](O)[C@H](N)[C@@H]2O)C[C@@H]2O[C@](O)(C[C@@H](O)C[C@@H](O)[C@H](O)CC[C@@H](O)C[C@@H](O)CC(=O)O[C@H]1C)C[C@H](O)[C@H]2C(=O)O
inactive: End Point: IN VITRO CHROMOSOMAL ABERRATIONS, Test System: CHO-LB CELLS, Metabolic Activation: NONE inactive; negative | End Point: IN VITRO CHROMOSOMAL ABERRATIONS, Test System: CHO-LB CELLS, Metabolic Activation: RAT, LIVER, S-9, AROCLOR 1254 inactive; negative | Test System: AMES SALMONELLA TYPHIMURIUM, Strain/Indicator: TA97, Metabolic Activation: HAMSTER, LIVER, S-9, AROCLOR 1254 (10 OR 30%), Method: PREINCUBATION inactive; negative | [1] inactive; negative | Test System: AMES SALMONELLA TYPHIMURIUM, Strain/Indicator: TA97, Metabolic Activation: RAT, LIVER, S-9, AROCLOR 1254 (10 OR 30%), Method: PREINCUBATION inactive; negative | Test System: AMES SALMONELLA TYPHIMURIUM, Strain/Indicator: TA98, Metabolic Activation: HAMSTER, LIVER, S-9, AROCLOR 1254 (10 OR 30%), Method: PREINCUBATION inactive; negative | [2] inactive; negative | Test System: AMES SALMONELLA TYPHIMURIUM, Strain/Indicator: TA98, Metabolic Activation: RAT, LIVER, S-9, AROCLOR 1254 (10 OR 30%), Method: PREINCUBATION inactive; negative | Test System: AMES SALMONELLA TYPHIMURIUM, Strain/Indicator: TA100, Metabolic Activation: HAMSTER, LIVER, S-9, AROCLOR 1254 (10 OR 30%), Method: PREINCUBATION inactive; negative | [3] inactive; negative | Test System: AMES SALMONELLA TYPHIMURIUM, Strain/Indicator: TA100, Metabolic Activation: RAT, LIVER, S-9, AROCLOR 1254 (10 OR 30%), Method: PREINCUBATION inactive; negative | Test System: AMES SALMONELLA TYPHIMURIUM, Strain/Indicator: TA1535, Metabolic Activation: HAMSTER, LIVER, S-9, AROCLOR 1254 (10 OR 30%), Method: PREINCUBATION inactive; negative | [4] inactive; negative | Test System: AMES SALMONELLA TYPHIMURIUM, Strain/Indicator: TA1535, Metabolic Activation: RAT, LIVER, S-9, AROCLOR 1254 (10 OR 30%), Method: PREINCUBATION inactive; negative | Test System: AMES SALMONELLA TYPHIMURIUM, Strain/Indicator: TA1537, Metabolic Activation: HAMSTER, LIVER, S-9, AROCLOR 1254 (30%), Method: PREINCUBATION inactive; negative | [5] inactive; negative | Test System: AMES SALMONELLA TYPHIMURIUM, Strain/Indicator: TA1537, Metabolic Activation: RAT, LIVER, S-9, AROCLOR 1254 (30%), Method: PREINCUBATION inactive; negative

CC12CCC=C(C=O)C1(C=O)C2 (stereo not given)
active: [6] active; positive | [7] active; positive

C=C(C#N)C(=O)OC
active: Test System: AMES SALMONELLA TYPHIMURIUM, Strain/Indicator: TA100, Metabolic Activation: HAMSTER, LIVER, S-9, AROCLOR 1254 (10%), Method: PREINCUBATION active; positive | [3] active; positive | Test System: AMES SALMONELLA TYPHIMURIUM, Strain/Indicator: TA100, Metabolic Activation: NONE, Method: SPOT TEST active; positive | [7] active; positive | Test System: AMES SALMONELLA TYPHIMURIUM, Strain/Indicator: TA100, Metabolic Activation: RAT, LIVER, S-9, AROCLOR 1254 (10%), Method: PREINCUBATION active; positive | Test System: AMES SALMONELLA TYPHIMURIUM, Strain/Indicator: TA100, Metabolic Activation: RAT, LIVER, S-9, AROCLOR 1254, Method: SPOT TEST active; positive | [8] active; positive
inactive: Test System: AMES SALMONELLA TYPHIMURIUM, Strain/Indicator: TA98, Metabolic Activation: HAMSTER, LIVER, S-9, AROCLOR 1254 (10%), Method: PREINCUBATION inactive; negative | [2] inactive; negative | Test System: AMES SALMONELLA TYPHIMURIUM, Strain/Indicator: TA98, Metabolic Activation: RAT, LIVER, S-9, AROCLOR 1254 (10%), Method: PREINCUBATION inactive; negative | Test System: AMES SALMONELLA TYPHIMURIUM, Strain/Indicator: TA1535, Metabolic Activation: HAMSTER, LIVER, S-9, AROCLOR 1254 (10%), Method: PREINCUBATION inactive; negative | [4] inactive; negative | Test System: AMES SALMONELLA TYPHIMURIUM, Strain/Indicator: TA1535, Metabolic Activation: RAT, LIVER, S-9, AROCLOR 1254 (10%), Method: PREINCUBATION inactive; negative | Test System: AMES SALMONELLA TYPHIMURIUM, Strain/Indicator: TA1537, Metabolic Activation: HAMSTER, LIVER, S-9, AROCLOR 1254 (10%), Method: PREINCUBATION inactive; negative | [5] inactive; negative | Test System: AMES SALMONELLA TYPHIMURIUM, Strain/Indicator: TA1537, Metabolic Activation: RAT, LIVER, S-9, AROCLOR 1254 (10%), Method: PREINCUBATION inactive; negative

CCN(CC)CCCC(C)Nc1cc(OC)cc2cccnc12 (stereo not given)
inactive: [1] inactive; negative | Test System: AMES SALMONELLA TYPHIMURIUM, Strain/Indicator: TA97, Metabolic Activation: RAT, LIVER, S-9, PHENOBARBITAL AND BETA-NAPHTHOFLAVONE, Method: PREINCUBATION inactive; negative | Test System: AMES SALMONELLA TYPHIMURIUM, Strain/Indicator: TA98, Metabolic Activation: RAT, LIVER, S-9, PHENOBARBITAL AND BETA-NAPHTHOFLAVONE, Method: PREINCUBATION inactive; negative | [3] inactive; negative | Test System: AMES SALMONELLA TYPHIMURIUM, Strain/Indicator: TA100, Metabolic Activation: RAT, LIVER, S-9, PHENOBARBITAL AND BETA-NAPHTHOFLAVONE, Method: PREINCUBATION inactive; negative | Test System: AMES SALMONELLA TYPHIMURIUM, Strain/Indicator: TA102, Metabolic Activation: NONE, Method: PREINCUBATION inactive; negative | Test System: AMES SALMONELLA TYPHIMURIUM, Strain/Indicator: TA102, Metabolic Activation: RAT, LIVER, S-9, PHENOBARBITAL AND BETA-NAPHTHOFLAVONE, Method: PREINCUBATION inactive; negative | Test System: E.COLI, Strain/Indicator: WP2UVRA/PKM101, Metabolic Activation: NONE, Method: PREINCUBATION inactive; negative | Test System: E.COLI, Strain/Indicator: WP2UVRA/PKM101, Metabolic Activation: RAT LIVER S-9, PHENOBARBITAL AND 5,6-BENZOFLAVONE, Method: PREINCUBATION inactive; negative
active: [2] active; positive

Cc1ccccc1-c1ccc(N)cc1
inactive: [6] inactive; negative | [7] inactive; negative
active: Test System: AMES SALMONELLA TYPHIMURIUM, Strain/Indicator: TA98, Metabolic Activation: RAT, LIVER, S-9, AROCLOR 1254, Method: STANDARD PLATE active; positive | [8] active; positive

CCCCCCCCCc1ccccc1Oc1ccccc1CCCCCCCCC
inactive: Test System: AMES SALMONELLA TYPHIMURIUM, Strain/Indicator: TA97, Metabolic Activation: NONE, Method: STANDARD PLATE inactive; negative | Test System: AMES SALMONELLA TYPHIMURIUM, Strain/Indicator: TA97, Metabolic Activation: S-9, Method: STANDARD PLATE inactive; negative | [6] inactive; negative | Test System: AMES SALMONELLA TYPHIMURIUM, Strain/Indicator: TA98, Metabolic Activation: S-9, Method: STANDARD PLATE inactive; negative | [7] inactive; negative | Test System: AMES SALMONELLA TYPHIMURIUM, Strain/Indicator: TA100, Metabolic Activation: S-9, Method: STANDARD PLATE inactive; negative | Test System: AMES SALMONELLA TYPHIMURIUM, Strain/Indicator: TA102, Metabolic Activation: NONE, Method: STANDARD PLATE inactive; negative | Test System: AMES SALMONELLA TYPHIMURIUM, Strain/Indicator: TA102, Metabolic Activation: S-9, Method: STANDARD PLATE inactive; negative | Test System: E.COLI, Strain/Indicator: WP2 (PKM101), Metabolic Activation: NONE, Method: STANDARD PLATE inactive; negative | Test System: E.COLI, Strain/Indicator: WP2 (PKM101), Metabolic Activation: S-9, Method: STANDARD PLATE inactive; negative

Cc1cn(/C=C/C=O)c(=O)[nH]c1=O
active: Test System: AMES SALMONELLA TYPHIMURIUM, Strain/Indicator: HISD3052, Metabolic Activation: NONE, Method: STANDARD PLATE active; positive
